Assay results: patent US10287297B2, “Epoxyazulene derivatives useful for treating cancer and diabetes” (The United States of America, as represented by the …, priority 2015, dated 2019)

Legend:
Assay type in all cases: cell-based
OVCAR-5 = assay: NCI 60 cell assay, ovarian OVCAR-5; conditions: Homo sapiens, 48 h; OVCAR-5 (ovarian); drug exposure two days, SRB endpoint; read-out: GI-50 value
Procedure: (§1) Samples were tested in the standard National Cancer Institute 60-cell line protocol. First, they were tested against all 60 cell lines in a single final concentration of 10 micromolar. Then, they were separately tested in five 10-fold dilutions. The drug exposure was two days, with an SRB endpoint.

CAKI-1 = assay: NCI 60 cell assay, renal CAKI-1; conditions: Homo sapiens, 48 h; CAKI-1 (renal); drug exposure two days, SRB endpoint; read-out: GI-50 value
Procedure: as §1

SF-539 = assay: NCI 60 cell assay, CNS SF-539; conditions: Homo sapiens, 48 h; SF-539 (CNS); drug exposure two days, SRB endpoint; read-out: GI-50 value
Procedure: as §1

NCI-H460 = assay: NCI 60 cell assay, NSCLC NCI-H460; conditions: Homo sapiens, 48 h, drug exposure two days, SRB endpoint, read-out: GI-50 value
Procedure: as §1

DU-145 = assay: NCI 60 cell assay, prostate DU-145; conditions: Homo sapiens, 48 h; DU-145 (prostate); drug exposure two days, SRB endpoint; read-out: GI-50 value
Procedure: as §1

MOLT-4 = assay: NCI 60 cell assay, leukemia MOLT-4; conditions: Homo sapiens, 48 h; MOLT-4 (leukemia); drug exposure two days, SRB endpoint; read-out: GI-50 value
Procedure: as §1

NCI-H322M = assay: NCI 60 cell assay, NSCLC NCI-H322M; conditions: Homo sapiens, 48 h, drug exposure two days, SRB endpoint, read-out: GI-50 value
Procedure: as §1

NCI-H226 = assay: NCI 60 cell assay, NSCLC NCI-H226; conditions: Homo sapiens, 48 h, drug exposure two days, SRB endpoint, read-out: GI-50 value
Procedure: as §1

CCRF-CEM = assay: NCI 60 cell assay, leukemia CCRF-CEM; conditions: Homo sapiens, 48 h, drug exposure two days, SRB endpoint, read-out: GI-50 value
Procedure: as §1

U251 = assay: NCI 60 cell assay, CNS U251; conditions: Homo sapiens, U-251, 48 h, drug exposure two days, SRB endpoint, read-out: GI-50 value
Procedure: as §1

A549/ATCC = assay: NCI 60 cell assay, NSCLC A549/ATCC; conditions: Homo sapiens, 48 h, drug exposure two days, SRB endpoint, read-out: GI-50 value
Procedure: as §1

SK-MEL-5 = assay: NCI 60 cell assay, melanoma SK-MEL-5; conditions: Homo sapiens, 48 h; SK-MEL-5 (melanoma); drug exposure two days, SRB endpoint; read-out: GI-50 value
Procedure: as §1

HS 578T = assay: NCI 60 cell assay, breast HS 578T; conditions: Homo sapiens, 48 h; HS 578T (breast); drug exposure two days, SRB endpoint; read-out: GI-50 value
Procedure: as §1

HL-60(TB) = assay: NCI 60 cell assay, leukemia HL-60(TB); conditions: Homo sapiens, 48 h; HL-60(TB) (leukemia); drug exposure two days, SRB endpoint; read-out: GI-50 value
Procedure: as §1

ACHN = assay: NCI 60 cell assay, renal ACHN; conditions: Homo sapiens, 48 h, drug exposure two days, SRB endpoint, read-out: GI-50 value
Procedure: as §1

EKVX = assay: NCI 60 cell assay, NSCLC EKVX; conditions: Homo sapiens, 48 h, drug exposure two days, SRB endpoint, read-out: GI-50 value
Procedure: as §1

MDA-MB-468 = assay: NCI 60 cell assay, breast MDA-MB-468; conditions: Homo sapiens, 48 h; MDA-MB-468 (breast); drug exposure two days, SRB endpoint; read-out: GI-50 value
Procedure: as §1

HCT-15 = assay: NCI 60 cell assay, colon HCT-15; conditions: Homo sapiens, 48 h; HCT-15 (colon); drug exposure two days, SRB endpoint; read-out: GI-50 value
Procedure: as §1

IGROV1 = assay: NCI 60 cell assay, ovarian IGROV1; conditions: Homo sapiens, IGROV-1, 48 h, drug exposure two days, SRB endpoint, read-out: GI-50 value
Procedure: as §1

UACC-62 = assay: NCI 60 cell assay, melanoma UACC-62; conditions: Homo sapiens, 48 h; UACC-62 (melanoma); drug exposure two days, SRB endpoint; read-out: GI-50 value
Procedure: as §1

786-0 = assay: NCI 60 cell assay, renal 786-0; conditions: Homo sapiens, 48 h; 786-0 (renal); drug exposure two days, SRB endpoint; read-out: GI-50 value
Procedure: as §1

BT-549 = assay: NCI 60 cell assay, breast BT-549; conditions: Homo sapiens, 48 h; BT-549 (breast); drug exposure two days, SRB endpoint; read-out: GI-50 value
Procedure: as §1

T-47D = assay: NCI 60 cell assay, breast T-47D; conditions: Homo sapiens, T47D, 48 h; T-47D (breast); drug exposure two days, SRB endpoint; read-out: GI-50 value
Procedure: as §1

MDA-MB-435 = assay: NCI 60 cell assay, melanoma MDA-MB-435; conditions: Homo sapiens, 48 h; MDA-MB-435 (melanoma); drug exposure two days, SRB endpoint; read-out: GI-50 value
Procedure: as §1

HT29 = assay: NCI 60 cell assay, colon HT29; conditions: Homo sapiens, HT-29, 48 h, drug exposure two days, SRB endpoint, read-out: GI-50 value
Procedure: as §1

RPMI-8226 = assay: NCI 60 cell assay, leukemia RPMI-8226; conditions: Homo sapiens, 48 h; RPMI-8226 (leukemia); drug exposure two days, SRB endpoint; read-out: GI-50 value
Procedure: as §1

OVCAR-3 = assay: NCI 60 cell assay, ovarian OVCAR-3; conditions: Homo sapiens, 48 h; OVCAR-3 (ovarian); drug exposure two days, SRB endpoint; read-out: GI-50 value
Procedure: as §1

LOX IMVI = assay: NCI 60 cell assay, melanoma LOX IMVI; conditions: Homo sapiens, 48 h, drug exposure two days, SRB endpoint, read-out: GI-50 value
Procedure: as §1

MDA-MB-231/ATCC = assay: NCI 60 cell assay, breast MDA-MB-231/ATCC; conditions: Homo sapiens, 48 h; MDA-MB-231/ATCC (breast); drug exposure two days, SRB endpoint; read-out: GI-50 value
Procedure: as §1

NCI-H522 = assay: NCI 60 cell assay, NSCLC NCI-H522; conditions: Homo sapiens, 48 h, drug exposure two days, SRB endpoint, read-out: GI-50 value
Procedure: as §1

HOP-92 = assay: NCI 60 cell assay, NSCLC HOP-92; conditions: Homo sapiens, 48 h; HOP-92 (NSCLC); drug exposure two days, SRB endpoint; read-out: GI-50 value
Procedure: as §1

SR = assay: NCI 60 cell assay, leukemia SR; conditions: Homo sapiens, 48 h, drug exposure two days, SRB endpoint, read-out: GI-50 value
Procedure: as §1

HCT-116 = assay: NCI 60 cell assay, colon HCT-116; conditions: Homo sapiens, 48 h; HCT-116 (colon); drug exposure two days, SRB endpoint; read-out: GI-50 value
Procedure: as §1

SMILES	GI50 (OVCAR-5)	GI50 (CAKI-1)	GI50 (SF-539)	GI50 (NCI-H460)	GI50 (DU-145)	GI50 (MOLT-4)	GI50 (NCI-H322M)	GI50 (NCI-H226)	GI50 (CCRF-CEM)	GI50 (U251)	GI50 (A549/ATCC)	GI50 (SK-MEL-5)	GI50 (HS 578T)	GI50 (HL-60(TB))	GI50 (ACHN)	GI50 (MDA-MB-468)	GI50 (HCT-15)	GI50 (IGROV1)	GI50 (UACC-62)	GI50 (786-0)	also measured
CC1=C2[C@@H](CC1)[C@]1(C)O[C@@](c3ccccc3)(C[C@H]1OC(=O)CO)[C@H]2OC(=O)C=Cc1ccccc1 [(Ir), (3aR,4S,5R,7R,8S)-5-(2-hydroxyacetoxy)-1,4-dimethyl-7-phenyl-2,3,3a,4,5,6,7,8-octahydro-4,7-epoxyazulen-8-yl cinnamate]	22 µM	13 µM	18 µM	15 µM	17 µM	12 µM	22 µM	16 µM	20 µM	13 µM	15 µM	15 µM	33 nM	16 µM	35 nM	15 µM	13 µM	24 µM	15 µM	14 µM	GI50 (EKVX): 15 µM; GI50 (BT-549): 710 nM; GI50 (T-47D): 11 µM; GI50 (MDA-MB-435): 17 µM; GI50 (HT29): 16 µM; GI50 (RPMI-8226): 13 µM; GI50 (OVCAR-3): 15 µM; GI50 (LOX IMVI): 17 µM; GI50 (MDA-MB-231/ATCC): 19 µM; GI50 (NCI-H522): 17 µM; GI50 (HOP-92): 14 µM; GI50 (SR): 11 µM; GI50 (HCT-116): 15 µM
CC(=O)O[C@@H]1C[C@]2(C(C)C)O[C@@]1(C)[C@@H]1CCC(C)=C1[C@@H]2OC(=O)C=Cc1ccccc1 [(Im), (3aR,4S,5R,7R,8S)-5-acetoxy-7-isopropyl-1,4-dimethyl-2,3,3a,4,5,6,7,8-octahydro-4,7-epoxyazulen-8-yl cinnamate]	100 µM	13 µM	100 µM	31 µM	71 µM	27 µM	100 µM	29 µM	32 µM	48 µM	47 µM	22 µM	4800 nM	25 µM	4500 nM	24 µM	32 µM	100 µM	26 µM	85 µM	GI50 (EKVX): 20 µM; GI50 (BT-549): 51000 nM; GI50 (T-47D): 20 µM; GI50 (MDA-MB-435): 39 µM; GI50 (HT29): 31 µM; GI50 (RPMI-8226): 10 µM; GI50 (OVCAR-3): 22 µM; GI50 (LOX IMVI): 30 µM; GI50 (MDA-MB-231/ATCC): 49 µM; GI50 (NCI-H522): 21 µM; GI50 (SR): 32 µM; GI50 (HCT-116): 16 µM
CC1=C2[C@@H](CC1)[C@]1(C)O[C@@](C3CCCCC3)(C[C@H]1OC(=O)CO)[C@H]2OC(=O)C=Cc1ccccc1 [(Iq), (3aR,4S,5R,7R,8S)-7-cyclohexyl-5-(2-hydroxyacetoxy)-1,4-dimethyl-2,3,3a,4,5,6,7,8-octahydro-4,7-epoxyazulen-8-yl cinnamate]	19 µM	10 µM	17 µM	13 µM	13 µM	12 µM	17 µM	12 µM	15 µM	13 µM	11 µM	14 µM	30 nM	15 µM	35 nM	12 µM	10 µM	19 µM	15 µM	13 µM	GI50 (EKVX): 11 µM; GI50 (BT-549): 500 nM; GI50 (T-47D): 9.1 µM; GI50 (MDA-MB-435): 15 µM; GI50 (HT29): 12 µM; GI50 (RPMI-8226): 10 µM; GI50 (OVCAR-3): 13 µM; GI50 (LOX IMVI): 14 µM; GI50 (MDA-MB-231/ATCC): 18 µM; GI50 (NCI-H522): 15 µM; GI50 (HOP-92): 6 µM; GI50 (SR): 9 µM; GI50 (HCT-116): 9 µM
CC1=C2[C@@H](CC1)[C@]1(C)O[C@@](C(C)C)(C[C@H]1OC(=O)CO)[C@H]2OC(=O)C1CC1c1ccccc1 (stereo partly drawn) [Compound (Ij), (3aR,4S,5R,7R,8S)-5-(2-hydroxyacetoxy)-7-isopropyl-1,4-dimethyl-2,3,3a,4,5,6,7,8-octahydro-4,7-epoxyazulen-8-yl-2-phenylcyclopropane-1-carboxylate]	20 µM	12 µM	17 µM	16 µM	16 µM	9 µM	19 µM	17 µM	18 µM	15 µM	13 µM	16 µM	150 nM	14 µM	1400 nM	13 µM	13 µM	19 µM	12 µM	15 µM	GI50 (EKVX): 13 µM; GI50 (BT-549): 14000 nM; GI50 (T-47D): 4.6 µM; GI50 (MDA-MB-435): 15 µM; GI50 (HT29): 13 µM; GI50 (RPMI-8226): 13 µM; GI50 (OVCAR-3): 14 µM; GI50 (LOX IMVI): 15 µM; GI50 (MDA-MB-231/ATCC): 15 µM; GI50 (NCI-H522): 13 µM; GI50 (HOP-92): 13 µM; GI50 (SR): 14 µM; GI50 (HCT-116): 19 µM
CC1=C2[C@@H](CC1)[C@]1(C)O[C@@](C(C)C)(C[C@H]1OC(=O)CO)[C@H]2OC(=O)/C=C/c1ccccc1 [Compound (Ih)]	41 µM	1.07 µM	40 µM	37 µM	41 µM	40 µM	43 µM	35 µM	42 µM	35 µM	33 µM	35 µM	15 nM	35 µM	22 nM	33 µM	32 µM	46 µM	100 µM	35 µM	GI50 (BT-549): 140 nM; GI50 (T-47D): 27 µM; GI50 (MDA-MB-435): 43 µM; GI50 (HT29): 39 µM; GI50 (RPMI-8226): 27 µM; GI50 (OVCAR-3): 39 µM; GI50 (LOX IMVI): 42 µM; GI50 (MDA-MB-231/ATCC): 39 µM; GI50 (NCI-H522): 40 µM; GI50 (HOP-92): 100 µM; GI50 (SR): 32 µM; GI50 (HCT-116): 33 µM
